According to EP3800188A1, “SUBSTITUTED PYRAZOLOPYRIMIDINES AS IRAK4 INHIBITORS” (Bayer AG, priority 2019, dated 2021):

Assays:
human IRAK4 = target: T1, human IRAK4 (Homo sapiens, UniProt Q9NWZ3); test: Human IRAK4 kinase activity inhibition assay (IRAK4 TR-FRET assay); type: biochemical; conditions: 1 mM ATP, GST-human IRAK4, average or median values
T1 construct: GST (N); made in house; host or cells: baculovirus-infected Hi5 (BTI-TN-5B1-4) insect cells
T1 sequence (Q9NWZ3 1-460): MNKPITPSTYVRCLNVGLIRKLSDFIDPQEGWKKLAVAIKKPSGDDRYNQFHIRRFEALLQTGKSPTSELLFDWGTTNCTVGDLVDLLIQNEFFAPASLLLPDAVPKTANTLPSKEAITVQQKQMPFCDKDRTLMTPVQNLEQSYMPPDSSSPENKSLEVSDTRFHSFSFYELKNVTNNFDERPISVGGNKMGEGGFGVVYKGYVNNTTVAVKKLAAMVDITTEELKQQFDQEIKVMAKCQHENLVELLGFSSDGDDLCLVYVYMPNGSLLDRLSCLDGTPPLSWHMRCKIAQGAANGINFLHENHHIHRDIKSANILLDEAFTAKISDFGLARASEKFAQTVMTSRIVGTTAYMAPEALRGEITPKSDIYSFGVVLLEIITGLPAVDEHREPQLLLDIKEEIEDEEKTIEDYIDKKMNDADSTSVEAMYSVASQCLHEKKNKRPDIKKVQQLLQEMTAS
Outline: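 Signal was the 665/620 nm emission ratio from a europium anti-mouse-IgG, anti-phosphoserine antibody and streptavidin-XL665 complex formed over 1 h at 22°C. It was scaled between no-enzyme (100%) and no-compound (0%) wells. Beforehand, compounds (20 µM down to 0.073 nM, 11 points) sat 15 min with roughly 0.2 nM insect-cell-expressed GST-human IRAK4 before phosphorylation of a biotinylated peptide substrate.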

[1] = Metabolic stability in human liver microsomes; conditions: 1 µM compound; for CLblood, human microsomes: hepatic in vivo blood clearance calculated with well stirred liver model, '(stable)' given beside < 0.01; for Fmax, human microsomes: maximal oral bioavailability calculated with well stirred liver model, 0.5 mg/mL protein, '(stable)' given beside 100
Experimental: The in vitro metabolic stability of test compounds was determined by incubating them at 1 µM in a suspension liver microsomes in 100 mM phosphate buffer, pH7.4 (NaH2PO4 x H2O + Na2HPO4 x 2H2O) and at a protein concentration of 0.5 mg/mL at 37° C. The microsomes were activated by adding a co-factor mix containing 8 mM Glukose-6-Phosphat, 4 mM MgCl2, 0.5 mM NADP and 1 IU/mL G-6-P-Dehydrogenase in phosphate buffer, pH 7.4. The metabolic assay was started shortly afterwards by adding the test compound to the incubation at a final volume of 1 mL. Organic solvent in the incubations was limited to ≤0.01 % dimethylsulfoxide (DMSO) and ≤1% acetonitril. During incubation, the microsomal suspensions were continuously shaken at 580 rpm, and aliquots were taken at 2, 8, 16, 30, 45 and 60 min, to which equal volumes of cold methanol were immediately added. Samples were frozen at -20° C over night, subsequently centrifuged for 15 min at 3000 rpm and the supernatant was analyzed with an Agilent 1200 HPLC-system with LCMS/MS detection.
The half-life of a test compound was determined from the concentration-time plot. From the half-life the intrinsic clearances were calculated. Together with the additional parameters liver blood flow, specific liver weight and microsomal protein content the hepatic in vivo blood clearance (CL) and the maximal oral bioavailability (Fmax) were calculated using the "well stirred" liver model. The following parameter values were used: Liver blood flow - 1.32 L/h/kg (human), 2.1 L/h/kg (dog); specific liver weight - 21 g/kg (human), 39 g/kg (dog); microsomal protein content - 40 mg/g.

Structure (SMILES)	IC50 (human IRAK4)	CLblood, human microsomes [1]	Fmax, human microsomes [1]
CC1(O)CCN(C2CN(c3nc(N[C@H]4C[C@H](O)C4)nc4c3cnn4-c3cccc(C(F)(F)F)c3)C2)CC1 [Example I-79, 1-(1-{6-[(trans-3-hydroxycyclobutyl)amino]-1-[3-(trifluoromethyl)phenyl]-1H-pyrazolo-[3,4-d]pyrimidin-4-yl}azetidin-3-yl)-4-methylpiperidin-4-ol]	7.75 nM	0.41 L/h/kg	69%
CC(C)(O)C1CN(c2nc(N[C@H]3C[C@H](S(C)(=O)=O)C3)nc3c2cnn3-c2cccc(C(F)(F)F)c2)C1 [Example I-83, 2-[1-(6-{[trans-3-(methylsulfonyl)cyclobutyl]amino}-1-[3-(trifluoromethyl)phenyl]-1H-pyrazolo[3,4-d]pyrimidin-4-yl)azetidin-3-yl]propan-2-ol]	5.53 nM	0.23 L/h/kg	83%
CS(=O)(=O)[C@H]1C[C@H](Nc2nc(N3C[C@@H](O)[C@H](F)C3)c3cnn(-c4cccc(C(F)(F)F)c4)c3n2)C1 [Example I-86, (3R,4R)-4-fluoro-1-(6-{[(1r,3R)-3-(methylsulfonyl)cyclobutyl]amino}-1-[3-(trifluoromethyl)phenyl]-1H-pyrazolo[3,4-d]pyrimidin-4-yl)pyrrolidin-3-ol]	3.66 nM	0.25 L/h/kg	81%
CC(C)(O)C1CCN(c2nc(N[C@H]3C[C@](C)(O)C3)nc3c2cnn3-c2cccc(C(F)(F)F)c2)CC1 [Example I-91, trans-3-({4-[4-(2-hydroxypropan-2-yl)piperidin-1-yl]-1-[3-(trifluoromethyl)phenyl]-1H-pyrazolo[3,4-d]pyrimidin-6-yl}amino)-1-methylcyclobutanol]	6.53 nM	0.04 L/h/kg	97%
O[C@H]1CN(c2nc(N[C@H]3C[C@@]4(CCN4)C3)nc3c2cnn3-c2cccc(C(F)(F)F)c2)C[C@@H]1F [Example I-98, (3S,4S)-1-{6-[(4S,6s)-1-azaspiro[3.3]heptan-6-ylamino]-1-[3-(trifluoromethyl)phenyl]-1H-pyrazolo[3,4-d]pyrimidin-4-yl}-4-fluoropyrrolidin-3-ol]	9.99 nM	< 0.01 (stable) L/h/kg	100 (stable) %
C[C@]1(O)C[C@@H](Nc2nc(N3C[C@@H](O)[C@H](O)C3)c3cnn(-c4cccc(C(F)(F)F)c4)c3n2)C1 [Example I-107]	8.11 nM	0.05 L/h/kg	96%
C[C@]1(O)C[C@H](Nc2nc(N3C[C@@H](O)[C@H](O)C3)c3cnn(-c4cccc(C(F)(F)F)c4)c3n2)C1 [Example I-108, (3R,4R)-1-(6-{[(1r,3R)-3-hydroxy-3-methylcyclobutyl]amino}-1-[3-(trifluoromethyl)-phenyl]-1H-pyrazolo[3,4-d]pyrimidin-4-yl)pyrrolidine-3,4-diol]	3.72 nM	0.16 L/h/kg	88%

Now from value to molecule:

IC50 (human IRAK4)	CLblood, human microsomes [1]	Fmax, human microsomes [1]	Structure (SMILES)
2.41 nM	< 0.01 (stable) L/h/kg	100 (stable) %	O[C@@H]1CN(c2nc(N[C@H]3C[C@@H](O)C3)nc3c2cnn3-c2cccc(C(F)(F)F)c2)C[C@H]1O [Example I-85, (3R,4R)-1-(6-{[(1s,3S)-3-hydroxycyclobutyl]amino}-1-[3-(trifluoromethyl)phenyl]-1H-pyrazolo[3,4-d]pyrimidin-4-yl)pyrrolidine-3,4-diol]
3.94 nM	0.57 L/h/kg	57%	O[C@@H]1CN(c2nc(N[C@H]3C[C@H](O)C3)nc3c2cnn3-c2cccc(C(F)(F)F)c2)C[C@H]1F [Example I-88, (3R,4R)-4-fluoro-1-(6-{[(1r,3R)-3-hydroxycyclobutyl]amino}-1-[3-(trifluoromethyl)-phenyl]-1H-pyrazolo[3,4-d]pyrimidin-4-yl)pyrrolidin-3-ol]
4.72 nM	0.37 L/h/kg	72%	O[C@@H]1CN(c2nc(N[C@H]3C[C@@H](O)C3)nc3c2cnn3-c2cccc(C(F)(F)F)c2)C[C@H]1F [Example I-89, (3R,4R)-4-fluoro-1-(6-{[(1s,3S)-3-hydroxycyclobutyl]amino}-1-[3-(trifluoromethyl)-phenyl]-1H-pyrazolo[3,4-d]pyrimidin-4-yl)pyrrolidin-3-ol]
5.61 nM	0.36 L/h/kg	73%	CCC1(O)CN(c2nc(N[C@H]3C[C@H](S(C)(=O)=O)C3)nc3c2cnn3-c2cccc(C(F)(F)F)c2)C1 [Example I-92, 3-ethyl-1-(6-{[trans-3-(methylsulfonyl)cyclobutyl]amino}-1-[3-(trifluoromethyl)phenyl]-1H-pyrazolo[3,4-d]pyrimidin-4-yl)azetidin-3-ol]
4.28 nM	0.16 L/h/kg	88%	CS(=O)(=O)[C@H]1C[C@H](Nc2nc(N3C[C@H](O)[C@@H](F)C3)c3cnn(-c4cccc(C(F)(F)F)c4)c3n2)C1 [Example I-94, (3S,4S)-4-fluoro-1-(6-{[(1r,3S)-3-(methylsulfonyl)cyclobutyl]amino}-1-[3-(trifluoromethyl)phenyl]-1H-pyrazolo[3,4-d]pyrimidin-4-yl)pyrrolidin-3-ol]
2.81 nM	0.35 L/h/kg	73%	O[C@@H]1CN(c2nc(N[C@H]3C[C@H](O)C3)nc3c2cnn3-c2cccc(C(F)(F)F)c2)C[C@H]1O [Example I-101, (3R,4R)-1-(6-{[(1r,3R)-3-hydroxycyclobutyl]amino}-1-[3-(trifluoromethyl)phenyl]-1H-pyrazolo[3,4-d]pyrimidin-4-yl)pyrrolidine-3,4-diol]
9.09 nM	0.68 L/h/kg	48%	CC1(N2CCOCC2)CN(c2nc(NC3CCS(=O)(=O)CC3)nc3c2cnn3-c2cccc(C(F)(F)F)c2)C1 [Example I-106, N-(1,1-dioxidotetrahydro-2H-thiopyran-4-yl)-4-[3-methyl-3-(morpholin-4-yl)azetidin-1-yl]-1-[3-(trifluoromethyl)phenyl]-1H-pyrazolo[3,4-d]pyrimidin-6-amine]
10.6 nM	0.33 L/h/kg	75%	CC1(O)CCN(C2CN(c3nc(N[C@H]4C[C@@H](O)C4)nc4c3cnn4-c3cccc(C(F)(F)F)c3)C2)CC1 [Example I-109, 1-(1-{6-[(cis-3-hydroxycyclobutyl)amino]-1-[3-(trifluoromethyl)phenyl]-1H-pyrazolo[3,4-d]pyrimidin-4-yl}azetidin-3-yl)-4-methylpiperidin-4-ol]
11.1 nM	0.13 L/h/kg	90%	CC1(O)CCN(C2CN(c3nc(N[C@H]4C[C@@](C)(O)C4)nc4c3cnn4-c3cccc(C(F)(F)F)c3)C2)CC1 [Example I-111, 1-(1-{6-[(cis-3-hydroxy-3-methylcyclobutyl)amino]-1-[3-(trifluoromethyl)phenyl]-1H-pyrazolo[3,4-d]pyrimidin-4-yl}azetidin-3-yl)-4-methylpiperidin-4-ol]
